Data taken from the supplement of paper PMC13380429.

Experiments:
Conditions in all cases: 72 h
Caco-2 [1] = assay: cell viability relative to DMSO; higher = less toxic
Calu-3 [2] = assay: as above
HepG2 [3] = assay: as above
U2OS [4] = assay: as above
Vero E6 [5] = assay: as above
Caco-2 [6] = assay: relative viability EC50 (midpoint between 100% and the lowest measured viability); higher = less toxic
Calu-3 [7] = assay: as above
HepG2 [8] = assay: as above
U2OS [9] = assay: as above
Vero E6 [10] = assay: as above
Caco-2 [11] = assay: drug sensitivity score (DSS) for viability; higher = more toxic; extreme values may be limits of the assay
Calu-3 [12] = assay: as above
HepG2 [13] = assay: as above
U2OS [14] = assay: as above
Vero E6 [15] = assay: as above

Row | SMILES | cell viability (Caco-2 [1]; 1 nM) | cell viability (Caco-2 [1]; 10 nM) | cell viability (Caco-2 [1]; 100 nM) | cell viability (Caco-2 [1]; 1000 nM) | cell viability (Caco-2 [1]; 10000 nM) | cell viability (Calu-3 [2]; 1 nM) | cell viability (Calu-3 [2]; 10 nM) | cell viability (Calu-3 [2]; 100 nM) | cell viability (Calu-3 [2]; 1000 nM) | cell viability (Calu-3 [2]; 10000 nM) | cell viability (HepG2 [3]; 1 nM) | cell viability (HepG2 [3]; 10 nM) | cell viability (HepG2 [3]; 100 nM) | cell viability (HepG2 [3]; 1000 nM) | cell viability (HepG2 [3]; 10000 nM) | cell viability (U2OS [4]; 1 nM) | cell viability (U2OS [4]; 10 nM) | cell viability (U2OS [4]; 100 nM) | cell viability (U2OS [4]; 1000 nM) | cell viability (U2OS [4]; 10000 nM) | cell viability (Vero E6 [5]; 1 nM) | cell viability (Vero E6 [5]; 10 nM) | cell viability (Vero E6 [5]; 100 nM) | cell viability (Vero E6 [5]; 1000 nM) | cell viability (Vero E6 [5]; 10000 nM) | relative viability EC50 (Caco-2 [6]) | relative viability EC50 (Calu-3 [7]) | relative viability EC50 (HepG2 [8]) | relative viability EC50 (U2OS [9]) | relative viability EC50 (Vero E6 [10]) | drug sensitivity score (Caco-2 [11]) | drug sensitivity score (Calu-3 [12]) | drug sensitivity score (HepG2 [13]) | drug sensitivity score (U2OS [14]) | drug sensitivity score (Vero E6 [15])
1 | COC(=O)c1ccc2c(c1)NC(=O)/C2=C(\Nc1ccc(N(C)C(=O)CN2CCN(C)CC2)cc1)c1ccccc1 [nintedanib] | 93.1% | 108% | 102% | 94.7% | 107% | 106% | 98% | 102% | 101% | 90.4% | 98.9% | 101% | 103% | 91.2% | 80.3% | 101% | 101% | 97.1% | 104% | 94% | 110% | 102% | 106% | 100% | 98.5% | > 10 µM | > 10 µM | > 10 µM | > 10 µM | > 10 µM | 0 | 0 | 1.5 | 0 | 0
2 | CC(=O)NC1CCSC1=O (stereo not given) [citiolone] | 98.8% | 92.6% | 97.6% | 99.7% | 99.6% | 103% | 98.4% | 93.2% | 101% | 110% | 102% | 95.8% | 95.1% | 109% | 110% | 95.4% | 95.4% | 101% | 100% | 105% | 99.9% | 94.7% | 95.6% | 102% | 106% | > 10 µM | > 10 µM | > 10 µM | > 10 µM | > 10 µM | 0 | 0 | 0 | 0 | 0
3 | CCCCC/C=C\C/C=C\CCCCCCCC(=O)NCCCC(=O)O [GABA-linoleamide] | 96.9% | 110% | 96.2% | 87.5% | 126% | 86% | 97.9% | 87% | 111% | 90.6% | 74.4% | 97.2% | 95.6% | 98.2% | 120% | 95.2% | 97.9% | 99.3% | 102% | 95.8% | 106% | 108% | 111% | 99.1% | 114% | > 10 µM | > 10 µM | > 10 µM | > 10 µM | > 10 µM | 0 | 0 | 0 | 0 | 0
4 | COC(=O)N/N=C/c1c[n+]([O-])c2ccccc2[n+]1[O-] [carbadox] | 90.4% | 81.8% | 92.9% | 92.1% | 88.4% | 93.8% | 84.8% | 95.7% | 105% | 93.2% | 110% | 95.4% | 96.1% | 105% | 110% | 99.5% | 97.4% | 99.2% | 91.7% | 98.2% | 93.7% | 95.8% | 88.9% | 92.6% | 111% | > 10 µM | > 10 µM | > 10 µM | > 10 µM | > 10 µM | 0 | 0 | 0 | 0 | 0
5 | Cc1cc(Cl)ccc1OCCCC(=O)NO [droxinostat] | 104% | 101% | 101% | 102% | 86.5% | 96.3% | 92.8% | 88.8% | 97.6% | 86.8% | 100% | 92.4% | 90.7% | 97.4% | 87% | 96.9% | 106% | 96.6% | 100% | 79.5% | 103% | 99.4% | 98.8% | 97% | 86.7% | > 10 µM | > 10 µM | > 10 µM | > 10 µM | > 10 µM | 0.1 | 0 | 0 | 0.6 | 0.3
6 | CC(C)CN(C[C@@H](OP(=O)(O)O)[C@H](Cc1ccccc1)NC(=O)O[C@H]1CCOC1)S(=O)(=O)c1ccc(N)cc1 [fosamprenavir] | 93.7% | 91.5% | 96.5% | 98.1% | 99.6% | 113% | 103% | 107% | 98.2% | 108% | 99.8% | 106% | 102% | 93.5% | 98.7% | 101% | 94.8% | 95.9% | 94.2% | 109% | 102% | 101% | 99% | 100% | 96.5% | > 10 µM | > 10 µM | > 10 µM | > 10 µM | > 10 µM | 0 | 0 | 0 | 0 | 0
7 | COc1ccccc1CN[C@H]1CCCN[C@H]1c1ccccc1 | 107% | 92.7% | 109% | 98.9% | 104% | 93.7% | 93.6% | 93.7% | 104% | 98.7% | 94.2% | 103% | 91.1% | 99.6% | 94.2% | 99% | 94.6% | 96.2% | 93.1% | 97.4% | 101% | 103% | 98% | 105% | 92.1% | > 10 µM | > 10 µM | > 10 µM | > 10 µM | > 10 µM | 0 | 0 | 0 | 0 | 0
8 | c1ccc(COCCCc2c[nH]cn2)cc1 [proxyfan] | 96.4% | 92.9% | 93.5% | 91.6% | 95.6% | 101% | 101% | 98.4% | 103% | 105% | 97.9% | 108% | 97.7% | 103% | 107% | 99.6% | 97.8% | 102% | 97.5% | 101% | 96.9% | 95.8% | 95.9% | 99% | 93.3% | > 10 µM | > 10 µM | > 10 µM | > 10 µM | > 10 µM | 0 | 0 | 0 | 0 | 0
9 | CC1(c2ccccc2)OC(C(=O)O)=CC1=O (stereo not given) [acifran] | 90.8% | 95.3% | 95.8% | 105% | 98.9% | 94.9% | 93.6% | 85.5% | 95.3% | 99.6% | 90.3% | 91.9% | 97.8% | 108% | 101% | 103% | 97.9% | 103% | 97.4% | 104% | 98.9% | 96.1% | 96.9% | 98.5% | 98% | > 10 µM | > 10 µM | > 10 µM | > 10 µM | > 10 µM | 0 | 0 | 0 | 0 | 0
10 | CCS(=O)(=O)N(C)[C@H]1c2cc(C#N)ccc2OC(C)(C)[C@@H]1O [chromanol-293B-(-)-[3R,4S]] | 94.3% | 93.2% | 90.4% | 93.3% | 88.9% | 105% | 99.2% | 95.5% | 106% | 90.6% | 104% | 102% | 91.6% | 103% | 98.7% | 93% | 93.8% | 99.1% | 94.3% | 95.2% | 96.6% | 107% | 98.2% | 92.5% | 110% | > 10 µM | > 10 µM | > 10 µM | > 10 µM | > 10 µM | 0 | 0 | 0 | 0 | 0
11 | O=C(O)[C@H](O)[C@@H](O)[C@H](O)[C@H](O)CO [sodium-gluconate] | 104% | 101% | 104% | 113% | 92.2% | 106% | 96.6% | 108% | 109% | 105% | 79.7% | 108% | 94.3% | 92.7% | 91% | 96.9% | 97% | 98.2% | 99.8% | 103% | 96.9% | 107% | 102% | 93.5% | 105% | > 10 µM | > 10 µM | > 10 µM | > 10 µM | > 10 µM | 0 | 0 | 0 | 0 | 0
12 | CC1(CN2CCC(n3c(=O)[nH]c4ccccc43)CC2)OCc2ccccc2-n2cccc21 (stereo not given) [zaldaride] | 99.6% | 91.6% | 101% | 88.1% | 93.1% | 86.3% | 96.1% | 101% | 84.7% | 94.5% | 94.9% | 96.4% | 86.6% | 104% | 76% | 102% | 94.6% | 98% | 95.7% | 99.1% | 98.9% | 97.7% | 98.7% | 100% | 89.9% | > 10 µM | > 10 µM | > 10 µM | > 10 µM | > 10 µM | 0 | 0 | 0.7 | 0 | 0
13 | Cc1nc2ccccc2c(-c2ccc3c4c(ccnc24)CCO3)c1[C@H](OC(C)(C)C)C(=O)O | 109% | 98.1% | 110% | 113% | 113% | 88.3% | 102% | 85.5% | 109% | 105% | 103% | 84.3% | 95.2% | 94.4% | 87.1% | 97.6% | 97.2% | 99% | 101% | 99.1% | 111% | 99.3% | 102% | 101% | 95.2% | > 10 µM | > 10 µM | > 10 µM | > 10 µM | > 10 µM | 0 | 0 | 0.1 | 0 | 0
14 | CCC(CC)CC1(C(=O)Nc2ccccc2SC(=O)C(C)C)CCCCC1 [dalcetrapib] | 99.9% | 97.1% | 94.3% | 93.7% | 107% | 96% | 95.4% | 103% | 90% | 97.8% | 88.6% | 103% | 88% | 98.6% | 90.2% | 96.9% | 97.1% | 108% | 98.3% | 104% | 98.4% | 99.2% | 101% | 102% | 101% | > 10 µM | > 10 µM | > 10 µM | > 10 µM | > 10 µM | 0 | 0 | 0 | 0 | 0
